Assay results reported in patent publication US7060428B2, “Methods and compositions useful for the prediction of blood-brain barrier permeation” (Wyeth, priority 2001, dated 2006).

Assay: Parallel artificial membrane permeability assay (PAMPA) for blood-brain barrier permeation, PSR4p analyzer
Conditions: for Pe (linear velocity of permeation): pH 7.4 buffer, 18 h, ambient temperature, literature compounds, averaged; for Papp at 18 h, 25 µg/mL: pig, PAMPA, pH 7.4
Source text: In actual practice, a solution of known concentration of a compound or mixture of compounds in a buffer solution is separated from a buffer solution containing 0% concentration of said compound or mixture of compounds by a porous filter membrane impregnated with a mixture of brain polar lipid extract and dodecane in such a way that the surface of each buffer solution is in contact with opposite sides of said impregnated membrane. After a measured period of time, the concentration of said compound or mixture of compounds is determined for each buffer solution and the rate of diffusion is calculated.
In one embodiment of the invention, a 96-well plate filled with solutions of a known concentration of test sample in a buffer solution (donor) may be covered with a 96-well filter plate wherein the porous filter membrane is impregnated with a mixture of brain polar lipid extract and dodecane and the wells are filled with a buffer solution containing 0% concentration of test sample (acceptor) such that the surface of each buffer solution is in contact with opposite sides of said impregnated filter membrane; after a measured period of time, the donor plate and acceptor plate are separated, the concentration of sample in each buffer solution is determined and the rate of permeation is calculated.
In another embodiment of the invention, a high through-put permeability instrument such as the PSR4p instrument manufactured by pION Inc., Woburn, Mass. may be utilized. In this embodiment, a parallel artificial membrane assay (PAMPA) technique is employed using as artificial membrane a porous filter membrane impregnated with a mixture of brain polar lipid extract and dodecane.
A 100 μL volume of each stock solution is placed into one well of a 96-well plate, and the well plate is placed in a PSR4p permeability analyzer manufactured by pION, Inc., Woburn, Mass. A 10 μL volume of stock solution is robotically added to a deep 96-well plate containing 2.0 mL of pH 7.4 buffer solution. The resultant mixture is mechanically stirred to form the donor solution. A 200 μL volume of each donor solution is placed robotically into 3 wells of a 96-well plate to afford the donor plate. A vial containing 20 mg of porcine polar brain lipid extract manufactured by Avanti Polar Lipids, Inc., Alabaster, Ala., dissolved in 1 mL of dodecane is placed in the reservoir of the PSR4p instrument. A 4 μL volume of this brain lipid solution is placed on the filter surface of each well of a 96-well microtiter filter well plate manufactured by Millipore Corp., Bedford, Mass., wherein the filter is a porous (0.45 μm) polyvinylidenefluoride material approximately 104 μm in thickness. The microtiter plate is then manually placed on an orbital shaker for 1 minute to yield a 96-well microtiter plate having a filter membrane permeated with a 2.0% wt/vol solution of porcine polar brain lipid extract in dodecane. A 200 μL volume of pH 7.4 buffer is robotically inserted into the wells of the thus-prepared microtiter 96-well filter plate to give a receptor plate, this receptor plate is placed on the donor plate to form a sandwich and allowed to stand at ambient temperature for 18 h.
A plate washer manufactured by Tecan, Hombrechin-tikon, Switzerland is then used to prepare a UV transparent 96-well plate (UV plate). The receptor plate is removed from the sandwich, a 150 μL volume of the receptor solution is robotically placed in the UV plate, and the UV absorption at 190–500 nm of each receptor well is recorded. The UV plate is then replaced in the plate washer, washed again and a 150 μL volume of the donor solution is robotically placed in the UV plate and the UV absorption at 190–500 nm of each donor well is recorded.

Structure (SMILES) | Pe (linear velocity of permeation) | Papp at 18 h, 25 µg/mL
C[C@]12CCC(=O)C=C1CC[C@@H]1[C@@H]2[C@@H](O)C[C@]2(C=O)[C@@H](C(=O)CO)CC[C@@H]12 [Aldosterone] | 1.19 10^−6 cm/s | < 20 nm/s
Cc1nnc2n1-c1ccc(Cl)cc1C(c1ccccc1)=NC2 [Alprazolam] | 5.44 10^−6 cm/s | > 40 nm/s
COc1ccc(CCN2CCC(Nc3nc4ccccc4n3Cc3ccc(F)cc3)CC2)cc1 [Astemizole] | 10.66 10^−6 cm/s | > 40 nm/s
CN(C)CCCN1c2ccccc2Sc2ccc(Cl)cc21 [Chlorpromazine] | 6.36 10^−6 cm/s | > 40 nm/s
CN1C(=O)CC(=O)N(c2ccccc2)c2cc(Cl)ccc21 [Clobazam] | 16.85 10^−6 cm/s | > 40 nm/s
NCCc1ccc(O)c(O)c1 [Dopamine] | 0.16 10^−6 cm/s | < 20 nm/s
Cc1cc(NC(=O)C2=C(O)c3ccccc3S(=O)(=O)N2C)no1 [Isoxicam] | 0.25 10^−6 cm/s | < 20 nm/s
CN(C)C(=O)C(CCN1CCC(O)(c2ccc(Cl)cc2)CC1)(c1ccccc1)c1ccccc1 [Loperamide] | 0.00 10^−6 cm/s | < 20 nm/s
CN1C(C(=O)Nc2ccccn2)=C(O)c2ccccc2S1(=O)=O [Piroxicam] | 2.53 10^−6 cm/s | < 20 nm/s
CN(C)CCCN1c2ccccc2Sc2ccccc21 [Promazine] | 8.84 10^−6 cm/s | > 40 nm/s
CN1C(C(=O)Nc2ccccn2)=C(O)c2sccc2S1(=O)=O [Tenoxicam] | 0.14 10^−6 cm/s | < 20 nm/s
CC(C)(C)c1ccc(C(O)CCCN2CCC(C(O)(c3ccccc3)c3ccccc3)CC2)cc1 (stereo not shown) [Terfenadine] | 0.00 10^−6 cm/s | < 20 nm/s
CCCC(C)C1(CC)C(=O)NC(=S)NC1=O (stereo not shown) [Thiopental] | – | > 40 nm/s
